Reference: publication PMC6155162, “Identification of mesothelioma-specific sialylated epitope recognized with monoclonal antibody SKM9-2 in a mucin-like membrane protein HEG1” (Scientific Reports, 2018)

Tests used:
SKM9-2 [1] = assay: SPR analysis of binding between SKM9-2 and soluble His-tagged minimum epitope peptides (SKMepmin); settings: for Kd: His-tagged SKMepmin secreted from transfected HEK293T immobilized on Ni2+-binding sensor chip NTA, analyte 5 µg/mL SKM9-2, running buffer 10 mM HEPES pH 8.1, 150 mM NaCl, 0.005% Tween-20, 50 µM EDTA, read-out: KD (M), dissociation constant; for association rate between SKM9-2 and epitope peptide (in words) / dissociation rate between SKM9-2 and epitope peptide (in words): analyte 5 µg/mL SKM9-2, change caused by the substitution; for affinity of SKM9-2 in contrast to SKMepmin3 (in words): analyte 5 µg/mL SKM9-2, ligand on sensor chip NTA
Procedure: Figure 5 SPR analysis of the binding kinetics between SKM9-2 and mutants of minimum epitope. A soluble His-tagged mutant of minimum epitope (SKMepmin) was secreted from transfected HEK293T and immobilized as a ligand on the Ni^2+-binding sensor chip NTA. The upper sensorgrams show the binding kinetics of analyte (5 µg/mL of SKM9-2) to SKMepmins. The control without any peptide is shown as “No peptide” and the negative control peptide cycle is shown as “Control peptide”. The glycan-digested SKMepmin3 that was treated with Neuraminidase A and O-Glycosidase was used as the negative control peptide. The dissociation constant in the lower bar graph was calculated using the manufacturer’s instructions. RU, response units; Signal sequence, the artificial signal sequence (MAPLLLLLLPLLLLPPAAP).
Figure 7 SPR analysis of bindings of lectin and SKM9-2 to glycosidase-treated SKMepmin3. Purified SKMepmin3 was incubated with α2-3 Neuraminidase S, Neuraminidase A, or Neuraminidase A + O-Glycosidase; and then was immobilized as a ligand on Ni^2+-binding sensor chip NTA. The analytes were used at a concentration of 5 µg/mL. (a) ABA, (b) Jacalin, (c) rACG, (d) SKM9-2. Glycosidase-digested sample was not tested in the experiment with rACG.
Cell lysate or SKMepmin3 was treated with α2-3 Neuraminidase S, α2-3, 6, 8, 9 Neuraminidase A, and O-Glycosidase (New England Biolabs Japan, Tokyo, Japan) in 50 mM sodium phosphate (pH 7.5) containing 1% Nonidet P-40, according to the manufacturer’s instructions. The cell lysate sample was resolved by 4–15% or 6% SDS-PAGE under reducing conditions and detected by western blotting using SKM9-2. The analysis of the SKMepmin3 sample was performed by SPR.
The binding of SKM9-2 or lectin to SKMepmin was measured by SPR analysis. SKMepmin was diluted with a running buffer (10 mM HEPES buffer (pH 8.1) containing 150 mM NaCl and 0.005% Tween-20), flowed on Ni^2+-binding sensor chip NTA (GE Healthcare), and affinity-bound through His-tag as a ligand on the sensor chip. Binding analysis of SKM9-2 was performed in a running buffer containing 50 µM EDTA. A non-treated flow cell was used as a reference cell. SKM9-2, anti-sialyl Lewis^X (CSLEX1, Becton, Dickinson and Company Japan, Tokyo, Japan), rACG (Wako Pure Chemical Industries), biotinylated ABA (J-Oil Mills, Inc., Tokyo, Japan), or biotinylated Jacalin (Vector Laboratories, Inc., Burlingame, CA, USA) (each 5 µg/mL) was injected as an analyte with the running buffer. As a regeneration buffer, 350 mM EDTA was used. The dissociation constant was calculated using the manufacturer’s instructions.

SKM9-2 [2] = assay: Western blotting using SKM9-2 of HEG1 truncated mutants and epitope-fused GPI-anchor proteins; assay type: binding; settings: cell lysates of transfected HEK293T, SDS-PAGE under reducing conditions, 1 µg/mL SKM9-2
Text: Figure 1 SKM9-2 binding to truncated mutants of HEG1. Schematics of full-length HEG1 (Full) and the truncated mutants are indicated on the left side and the results of western blotting using SKM9-2 are shown on the right side. Truncated amino acid position, which is based on a full-length variant of HEG1 containing exon 6, is shown as a number in the schematic of domain structure. The region of the SKM9-2 epitope is shown as a red square. […] SLURP GPI-anchor protein[18] was used as a fused GPI-anchor protein (violet square). The terminal sequences of the HEG1 peptide are shown in the western blot lane. The samples were resolved by 6% SDS-PAGE (a and b) or 4–15% SDS-PAGE (c) under reducing conditions and were detected by western blotting using SKM9-2. Cyt, cytoplasmic domain; EGFs, EGF related domains; Ser/Thr, serine/threonine rich region; SLURP, secreted lymphocyte antigen-6/urokinase-type plasminogen activator receptor-related peptide; SP, signal peptide; TM, transmembrane domain. Full-length blots are presented in Supplementary Fig. S7.
Figure 2 Epitope mapping of SKM9-2. Schematic of epitope peptides (left side) and western blots resolved by 4–15% SDS-PAGE (right side) are shown. The HEG1 peptide sequences are indicated in the western blot lane. Each epitope peptide was fused with a signal peptide (dashed line square) and a SLURP GPI-anchor protein (violet square). Full-length blots are presented in Supplementary Fig. S8.
Figure 3 Alanine scanning of SKM9-2 epitope. […] Cell lysates of transfected HEK293T (upper panel) or transfected ACC-MESO1 (lower panel) were resolved by 4–15% SDS-PAGE and analyzed by western blotting using SKM9-2. (b) S897A mutant of FLAG-tagged HEG1 in HEK293T was resolved by 4–15% SDS-PAGE and analyzed by western blotting using SKM9-2 (upper panel) or anti-FLAG mAb (lower panel). Native HEG1 in ACC-MESO4 and FLAG-tagged HEG1 without mutation in HEK293T were used as controls. Full-length blots are presented in Supplementary Fig. S9.
Sequences of tested HEG1 are shown in Supplementary Dataset. Full-length HEG1 cDNA was synthesized from total RNA purified with TRIzol reagent (Thermo Fisher Scientific) from ACC-MESO-4, using an oligo dT primer and SuperScript II RNase H reverse transcriptase (Thermo Fisher Scientific). cDNA encoding the HEG1 open reading frame was amplified by PCR using PrimeSTAR HS DNA Polymerase (Takara Bio Inc., Shiga, Japan). The HEG1 cDNA was cloned and inserted into the pcDNA3.1(−) mammalian expression vector (Thermo Fisher Scientific). For analyses of N-terminal truncation, we inserted mutants into pFLAG-CMV1 (Sigma-Aldrich Japan K.K., Tokyo, Japan). For analyses of C-terminal deletion lacking the transmembrane domain, we used mutants that were fused with a GPI-anchor protein, SLURP1-gpi[18], in pcDNA3.1(+) (Thermo Fisher Scientific) (Supplementary Dataset). Alanine substituted mutants were prepared using site directed mutagenesis. To produce a soluble epitope peptide, a modified HEG1 signal peptide and a C-terminal tag containing the FLAG tag plus a polyhistidine sequence were used in the mammalian expression vector pEF-BOS[39] (Supplementary Dataset). The plasmid constructs were transfected with Lipofectamine 3000 (Thermo Fisher Scientific). The HEG1 peptide-expressing 293 H clone was obtained by selection with geneticin (Thermo Fisher Scientific).
Monolayer cells were solubilized with 20 mM Tris buffer (pH 8.0) containing 1% SDS, 1 mM phenylmethylsulfonyl fluoride, 125 mU/mL Benzonase Nuclease (Merck Millipore Co., Tokyo, Japan) (25 µL/cm^2 culture surface area). The lysate (10 µL/lane) was resolved by SDS-PAGE under reducing conditions using 6% polyacrylamide gels or 4–15% precast gels (Bio-Rad Laboratories Inc., Hercules, CA, USA). […]

Molecule: MAPLLLLLLPLLLLPPAAPGGSKAPSLVSLPTGGDYKDDDDKHHHHHHHH [SKMepmin2]
- Kd (SKM9-2 [1]): 6.22e-09 M
- association rate between SKM9-2 and epitope peptide (in words) (SKM9-2 [1]): increased

Molecule: MAPLLLLLLPLLLLPPAAPGGSKAPTLVSLPAGGDYKDDDDKHHHHHHHH [SKMepmin7]
- Kd (SKM9-2 [1]): 6.17e-08 M
- affinity of SKM9-2 in contrast to SKMepmin3 (in words) (SKM9-2 [1]): further reduced

Molecule: MAPLLLLLLPLLLLPPAAPGGTKAPSLVSLPAGGDYKDDDDKHHHHHHHH [SKMepmin5]
- Kd (SKM9-2 [1]): 2.9e-09 M
- association rate between SKM9-2 and epitope peptide (in words) (SKM9-2 [1]): hardly influenced
- dissociation rate between SKM9-2 and epitope peptide (in words) (SKM9-2 [1]): hardly influenced
- affinity of SKM9-2 in contrast to SKMepmin3 (in words) (SKM9-2 [1]): restored

Molecule: MAPLLLLLLPLLLLPPAAPGGSKAPALVSLPAGGDYKDDDDKHHHHHHHH [SKMepmin6]
- Kd (SKM9-2 [1]): 4.2e-08 M
- dissociation rate between SKM9-2 and epitope peptide (in words) (SKM9-2 [1]): increased
- affinity of SKM9-2 in contrast to SKMepmin3 (in words) (SKM9-2 [1]): decreased

Molecule: MAPLLLLLLPLLLLPPAAPGGAKAPSLVSLPAGGDYKDDDDKHHHHHHHH [SKMepmin4]
- Kd (SKM9-2 [1]): 1.15e-08 M
- association rate between SKM9-2 and epitope peptide (in words) (SKM9-2 [1]): decreased
- affinity of SKM9-2 in contrast to SKMepmin3 (in words) (SKM9-2 [1]): decreased

Molecule: 7.627: 887-EKVITESKSPSLVS-900 -SLURP GPI
- recognition by SKM9-2 upon western blot analysis (SKM9-2 [2]): not bound

Molecule: 7.62: 887-EKVITESKSPSLVSLPTEST-906 -SLURP GPI
- recognition by SKM9-2 upon western blot analysis (SKM9-2 [2]): clearly detected

Molecule: 7.626: 887-EKVITESKSPSLVSLP-902 -SLURP GPI
- recognition by SKM9-2 upon western blot analysis (SKM9-2 [2]): weakly recognized

Molecule: MAPLLLLLLPLLLLPPAAPGGSKAPSLVTLPAGGDYKDDDDKHHHHHHHH [SKMepmin9]
- Kd (SKM9-2 [1]): 6.38e-09 M
- dissociation rate between SKM9-2 and epitope peptide (in words) (SKM9-2 [1]): increased
- affinity of SKM9-2 in contrast to SKMepmin3 (in words) (SKM9-2 [1]): restored

Molecule: MAPLLLLLLPLLLLPPAAPGGSKAPSLVALPAGGDYKDDDDKHHHHHHHH [SKMepmin8]
- Kd (SKM9-2 [1]): 3.25e-08 M
- dissociation rate between SKM9-2 and epitope peptide (in words) (SKM9-2 [1]): increased
- affinity of SKM9-2 in contrast to SKMepmin3 (in words) (SKM9-2 [1]): decreased

Molecule: MAPLLLLLLPLLLLPPAAPGGSKSPSLVSLPTGGDYKDDDDKHHHHHHHH [SKMepmin1]
- Kd (SKM9-2 [1]): 8.75e-09 M

B1: 3 kb: FLAG-tagged N-terminal deletion mutant hHEG1 (285-1481) (protein)
chain: MSALLILALVGAAVADYKDDDDKLAAANSSIDLSWLHFYRTAASSPLLDLSSSSESTEKLNNSTGLQSSSVSQTKTMHVATVFTDGGPRTLRSLTVSLGPVSKTEGFPKDSRIATTSSSVLLSPSAVESRRNSRVTGNPGDEEFIEPSTENEFGLTSLRWQNDSPTFGEHQLASSSEVQNGSPMSQTETVSRSVAPMRGGEITAHWLLTNSTTSADVTGSSASYPEGVNASVLTQFSDSTVQSGGSHTALGDRSYSESSSTSSSESLNSSAPRGERSIAGISYGQVRGTAIEQRTSSDHTDHTYLSSTFTKGERALLSITDNSSSSDIVESSTSYIKISNSSHSEYSSFFHAQTERSNISSYDGEYAQPSTESPVLHTSNLPSYTPTINMPNTSVVLDTDAEFVSDSSSSSSSSSSSSSSSSSSSSGPPLPLPSVSQSHHLFSSILPSTRASVHLLKSTSDASTPWSSSPSPLPVSLTTSTSAPLSVSQTTLPQSSSTPV
- recognition by SKM9-2 upon western blot analysis (SKM9-2 [2]): recognized

B2: 2.2 kb: FLAG-tagged N-terminal deletion mutant hHEG1 (712-1481) (protein)
chain: MSALLILALVGAAVADYKDDDDKLAAANSSIDLSSYDGEYAQPSTESPVLHTSNLPSYTPTINMPNTSVVLDTDAEFVSDSSSSSSSSSSSSSSSSSSSSGPPLPLPSVSQSHHLFSSILPSTRASVHLLKSTSDASTPWSSSPSPLPVSLTTSTSAPLSVSQTTLPQSSSTPVLPRARETPVTSFQTSTMTSFMTMLHSSQTADLKSQSTPHQEKVITESKSPSLVSLPTESTKAVTTNSPLPPSLTESSTEQTLPATSTNLAQMSPTFTTTILKTSQPLMTTPGTLSSTASLVTGPIAVQTTAGKQLSLTHPEILVPQISTEGGISTERNRVIVDATSGLIPLTSVPTSAKEMTTKLGVTAEYSPASRSLGTSPSPQTTVVSTAEDLAPKSATFAVQSSTQSPTTLSSSASVNSCAVNPCLHNGECVADNTSRGYHCRCPPSWQGDDCSVDVNECLSNPCPSTAMCNNTQGSFICKCPVGYQLEKGICNLVRTFVTEF
- recognition by SKM9-2 upon western blot analysis (SKM9-2 [2]): recognized

B3: 2 kb: FLAG-tagged N-terminal deletion mutant hHEG1 (771-1481) (protein)
chain: MSALLILALVGAAVADYKDDDDKLAAANSSIDLSSGPPLPLPSVSQSHHLFSSILPSTRASVHLLKSTSDASTPWSSSPSPLPVSLTTSTSAPLSVSQTTLPQSSSTPVLPRARETPVTSFQTSTMTSFMTMLHSSQTADLKSQSTPHQEKVITESKSPSLVSLPTESTKAVTTNSPLPPSLTESSTEQTLPATSTNLAQMSPTFTTTILKTSQPLMTTPGTLSSTASLVTGPIAVQTTAGKQLSLTHPEILVPQISTEGGISTERNRVIVDATSGLIPLTSVPTSAKEMTTKLGVTAEYSPASRSLGTSPSPQTTVVSTAEDLAPKSATFAVQSSTQSPTTLSSSASVNSCAVNPCLHNGECVADNTSRGYHCRCPPSWQGDDCSVDVNECLSNPCPSTAMCNNTQGSFICKCPVGYQLEKGICNLVRTFVTEFKLKRTFLNTTVEKHSDLQEVENEITKTLNMCFSALPSYIRSTVHASRESNAVVISLQTTFSLASN
- recognition by SKM9-2 upon western blot analysis (SKM9-2 [2]): recognized
